# Reference: US10954222B2, “Benzothiophene compound, alternative autophagy-inducing agent and anticancer agent including the compound as active ingredient, and method for screening for compound having anticancer activity” (National University Corporation Tokyo Medical and Dental …, priority 2012, dated 2021)
# Where two headings read alike, the source gives them in different places.
# What was measured:
# [1] = tested on: Lamp1-GFP/ATG5-KO MEFs; experiment: Evaluation of activity to induce alternative autophagy (fluorescent bright spots due to aggregation of Lamp1-GFP); format: cell-based, mouse; conditions: for aggregation of Lamp1-GFP, visually determined: concentrations of 10 μM or higher (10 to 50 μM), 5 hours; for alternative autophagy-inducing activity (FIG. 16): Example 9, same method as Example 1; for ability to induce alternative autophagy, comparative statement: as shown in Examples
# Procedure: First, by using a retrovirus, a gene for expression of a Lamp1-GFP fusion protein (also referred to as “Lamp1-GFP”) was introduced into ATG5-deficient mouse embryonic fibroblasts (also referred to as “ATG5-KO MEFs”). Then, a cell with high expression of Lamp1-GFP was cloned and prepared as Lamp1-GFP/ATG5-KO MEFs.
# The ATG5-KO MEFs were prepared by introducing a gene for expression of SV40T antigen into MEFs established from an ATG5-deficient C57/B6J mouse at a fetal age of 14.5 days by an electroporation method using an Nucleofector system (manufactured by amaxa) for immortalization. In addition, the retrovirus was prepared by introducing an MSCV-Lamp1-GFP (zeocin resistant) vector into plat E cells, which were retrovirus packaging cells.
# To the Lamp1-GFP/ATG5-KO MEFs seeded at 1×10^4/96 wells on the preceding day, each of the test compounds was added at a final concentration of 50 μM, and the Lamp1-GFP/ATG5-KO MEFs were cultured at 37° C. under 10% CO2 for 5 hours.
# Then, for observation, Hoechst 33342 (manufactured by invitrogen) was added at a final concentration of 1 ng/ml to each culture liquid, followed by incubation for 5 minutes. Then, the culture liquid was replaced with 100 μl of HBSS. Subsequently, five visual fields per well were photographed at random with IN CELL ANALYZER 1000 (manufactured by GE Healthcare).
# Then, the thus obtained novel benzothiophene compounds (TMD-459 and TMD-460) were evaluated for the ability to induce alternative autophagy by the same method as that described in Example 1. Note that, in Example 10, each of the compounds was added to culture liquids at final concentrations of 10, 20, 30, 40, and 50 μM. In addition, compound #9 was also added as a reference example to culture liquids at the above-described concentrations. Then, 5 hours after the addition of each of these compounds, five visual fields per each well were photographed at random with IN CELL ANALYZER 1000, and the presence or absence of fluorescent bright spots due to the aggregation of Lamp1-GFP was visually determined.
# [2] = tested on: MEFs immortalized with SV40T antigen; experiment: cells; conditions: Mus musculus, 24 h, read-out: induced cell death of the MEFs immortalized with SV40T antigen
# [3] = tested on: MEFs immortalized with SV40T antigen; conditions: 24 hours, CTB
# [4] = tested on: 53T implanted in wild-type C57/B6J mice; experiment: Survival rate of cancer-bearing mice; format: in vivo, mouse; conditions: 10 μM every other day 5 times; compared with etoposide at 10 μM, FIGS. 13 to 15
# [5] = tested on: mouse tumor cell line 53T; experiment: Evaluation of in vitro anticancer activity (Cell titer blue, cell death induction rate); format: cell-based; design: key: (CTB of negative control − CTB treated)/CTB of negative control; conditions: 24 hours, CTB
# Procedure: First, the mouse tumor cell line 53T was seeded at 2×10^4/well on 96 well plates. Then, on the following day, each of compounds #09 and #13 dissolved in DMSO was added at a final concentration of 1, 5, 10, 20, or 50 μM. In addition, a negative control to which only DMSO was added was prepared. Subsequently, the cells were cultured at 37° C. under 10% CO2 for 24 hours. Then, by using Cell titer blue (CTB) (manufactured by Promega) according to the attached protocol, the amount of the fluorescence of each well of the cells 10 minutes after the addition of the CTB reagent was measured as a CTB measurement value of the cells brought into contact with compound #09 or #13. On the basis of such measurement values, the cell death induction rate of each of compounds #09 and #13 was calculated according to the following formula. Cell death induction rate=(CTB measurement value of negative control−CTB measurement value of cells to which compound was added)/CTB measurement value of negative control
# [6] = tested on: p53-deficient cancer cells (53T); experiment: Alternative autophagy-inducing activity in tumor cell line (Lamp2 aggregation, fluorescence and electron microscope); format: cell-based, mouse; conditions: 20 μM, six hours, FIGS. 3 to 6
# Procedure: In the same manner as in the above-described <Evaluation of Alternative Autophagy-Inducing Activity> using the Lamp1-GFP/ATG5-KO MEFs, each of the compounds #09 and #13 was added at a final concentration of 20 μM to a culture liquid of the tumor cell line (also referred to as “53T”) established from the tumor developed spontaneously in the p53 deficient C57/B6J mouse. […] Note that, in this evaluation, Lamp2 was used instead of Lamp1. FIGS. 3 to 6 show the obtained results.
# [7] = tested on: fibroblasts (cancer cells) immortalized with SV40; experiment: Activity to induce cell death specific to cancer cells: cancer cells (CTB survival rate); format: cell-based; conditions: 20 μM, FIGS. 7 and 8
# [8] = tested on: tumor cell line 53T implanted in wild-type C57/B6J mice; experiment: In vivo anticancer activity, tumor volume in cancer-bearing mice implanted with 53T; design: species or system mouse; conditions: for anticancer activity (FIG. 17, tumor volumes in cancer-bearing mice): Example 9
# Procedure: A tumor cell line (also referred to as “53T”) established from a tumor developed spontaneously in a p53 deficient C57/B6J mouse was implanted at 4 sites in the ventral skin of each of wild-type C57/B6J mice at 3×10^5 cells per site. From the following day, the compounds were administered to the mice every other day five times in total. The concentration of each compound was 0.4 μmol/(50 μl DMSO+100 μl PBS)/mouse/administration. In addition, a negative control group to which only the same amount of DMSO was administered was prepared. Then, 21 days (3 weeks) after the implantation, the tumor diameters of the mice were measured, and the tumor volumes were calculated, and compared with that of the control group.
# The 53T was implanted at 4 sites in the ventral skin of each of wild-type C57/B6J mice at 3×10^5 cells per site. From the following day, 0 (DMSO alone), 5, 10, or 20 μM of each of compounds #09 and #13 was administered to six mice every other day five times in total. Then, 21 days (3 weeks) after the implantation, the tumor diameters of the mice were measured, and the tumor volumes were calculated. FIGS. 9 and 11 show the obtained results. Note that, in FIGS. 9 and 11, each point indicates the average volume of the tumors at the four sites in a mouse.
# In addition, in the same manner as described above, the 53T was implanted in mice, and, from the following day, each of compound #09 at a concentration of 10 μM and compound #13 at a concentration of 5 μM was administered to four cancer-bearing mice every other day five times in total. Then, 21 days (3 weeks) after the implantation, the tumor diameters of the mice were measured, and the tumor volumes were calculated. In addition, a negative control to which DMSO was administered was also prepared, and the tumor volume was calculated in the same manner. In addition, these experiments were conducted three times independently of each other. FIGS. 10 and 12 show the obtained results. Note that in FIGS. 10 and 12, each point indicates the average volume of the tumors at the four sites in a mouse.
# [9] = tested on: primary cultured fibroblasts (normal cells); experiment: Activity to induce cell death specific to cancer cells: normal cells (CTB survival rate); format: cell-based; conditions: 20 μM, FIGS. 7 and 8
# Procedure: CTB measurement values were obtained in the same manner as in the above-described <Evaluation of In Vitro Anticancer Activity> by adding each of compounds #09 and #13 at a final concentration of 20 μM to culture liquids of primary cultured fibroblasts (normal cells) and fibroblasts (cancer cells) immortalized with SV40. On the basis of the obtained CTB measurement values, the cell survival rate was calculated over time. Note that the cell survival rate was defined as 1-cell death induction rate. FIGS. 7 and 8 show the obtained results.
# [10] = Cell-killing effect (necrosis) of analogous compounds; format: cell-based; conditions: even when added at a low concentration
structure (smiles),measurement,setting,value
"CCOC(=O)c1c(NC(C)=O)sc2c(OCCN(CC)CC)c(-c3ccccc3)ccc12 [TMD-459, Ethyl 2-Acetylamino-7-[2-(N,N-diethylamino)ethyloxy]-6-phenylbenzo[b]thiophene-3-carboxylate]","aggregation of Lamp1-GFP, visually determined",[1],aggregation of the Lamp1-GFP was observed in all the cells
"CCOC(=O)c1c(N)sc2c(OCCN(CC)CC)c(Br)ccc12 [TMD-460, Ethyl 2-Amino-7-[2-(N,N-diethylamino)ethyloxy]-6-bromobenzo[b]thiophene-3-carboxylate]","aggregation of Lamp1-GFP, visually determined",[1],aggregation of the Lamp1-GFP was observed in all the cells
same,mortality at 20 µM,[2],≥ 80%
same,Cell death induction rate,[3]; 10 μM,0.7701
same,Cell death induction rate,[3]; 20 μM,0.875
same,Cell death induction rate,[3]; 30 μM,0.8885
same,Cell death induction rate,[3]; 40 μM,0.8902
same,Cell death induction rate,[3]; 50 μM,0.8919
N=C(Nc1ccc2c(c1)OCCO2)Nc1nc(-c2cccs2)cc(C(F)(F)F)n1 [compound 13],improvement effect on the survival rate of the cancer-bearing mice,[4],higher improvement effect on the survival rate of the cancer-bearing mice than etoposide
same,Cell death induction rate,[5]; 1 μM,0
same,Cell death induction rate,[5]; 5 μM,0.1776
same,Cell death induction rate,[5]; 10 μM,0.4559
same,Cell death induction rate,[5]; 20 μM,0.768
same,Cell death induction rate,[5]; 50 μM,0.9426
same,aggregation of Lamp2 and occurrence of autophagy,[6],aggregation of the lysosomal protein Lamp2 and occurrence of autophagy were observed
same,cell death-inducing activity on cancer cells (cell survival rate over time),[7],exhibited remarkable cell death-inducing activity on the cancer cells
same,"in vivo anticancer activity (tumor volume vs control group, FIG. 2)","[8]; 0.4 μmol/mouse/administration, every other day five times, 21 days after implantation",selected as compounds having in vivo anticancer activity
same,"in vivo anticancer activity (tumor volume, FIGS. 9 to 12)","[8]; 5, 10, or 20 μM every other day five times, 21 days after implantation",exhibited in vivo anticancer activity
same,in vivo anticancer activity at low concentration (FIG. 11),[8]; administered at 5 μM,exhibited remarkable anticancer activity
same,cell death of normal cells (cell survival rate over time),[9],hardly induced cell death of the normal cells
CCOC(=O)c1c(NC(C)=O)sc2c(OCC(O)CNC3CCCCC3)c(Br)ccc12 (stereo not drawn) [compound 36],cell-killing effect (necrosis),[10],strong cell-killing effect (necrosis)
CCOC(=O)c1c(NC(C)=O)sc2c(OC(C)=O)cccc12 [compound 37],alternative autophagy-inducing activity (FIG. 16),[1],no alternative autophagy-inducing activity
same,"anticancer activity (FIG. 17, tumor volumes in cancer-bearing mice)",[8],did not have anticancer activity
CCOC(=O)c1c(NC(C)=O)sc2c(NC(C)=O)cccc12 [compound 38],alternative autophagy-inducing activity (FIG. 16),[1],no alternative autophagy-inducing activity
same,"anticancer activity (FIG. 17, tumor volumes in cancer-bearing mice)",[8],did not have anticancer activity
COc1c(Br)ccc2c(C(=O)O)c(NC(C)=O)sc12 [compound 40],alternative autophagy-inducing activity (FIG. 16),[1],no alternative autophagy-inducing activity
same,"anticancer activity (FIG. 17, tumor volumes in cancer-bearing mice)",[8],did not have anticancer activity
CCOC(=O)c1c(NC(=O)c2ccccc2)sc2c(O)c(Br)cc(Br)c12 [compound 42],alternative autophagy-inducing activity (FIG. 16),[1],no alternative autophagy-inducing activity
same,"anticancer activity (FIG. 17, tumor volumes in cancer-bearing mice)",[8],did not have anticancer activity
CCOC(=O)c1c(NC(C)=O)sc2c(Cl)c(/C=N/c3ccccc3)cc(Br)c12 [compound 44],alternative autophagy-inducing activity (FIG. 16),[1],no alternative autophagy-inducing activity
same,"anticancer activity (FIG. 17, tumor volumes in cancer-bearing mice)",[8],did not have anticancer activity
CCCC(=O)c1c(NC(C)=O)sc2c(Cl)c(/C=N\CCCCO)ccc12 [compound 46],alternative autophagy-inducing activity (FIG. 16),[1],no alternative autophagy-inducing activity
same,"anticancer activity (FIG. 17, tumor volumes in cancer-bearing mice)",[8],did not have anticancer activity
C=CC/N=C/c1cc(C)c2c(C(=O)OCC)c(NC(C)=O)sc2c1Cl [compound 47],cell-killing effect (necrosis),[10],strong cell-killing effect (necrosis)
CCOC(=O)c1c(NC(C)=O)sc2c(OCCN(CC)CC)c(-c3ccc(OC)cc3)ccc12 [formula (1-10)],"ability to induce alternative autophagy, comparative statement",[1],ability to induce alternative autophagy is higher
CCOC(=O)c1c(NC(C)=O)sc2c(OCCN(CC)CC)c(-c3ccccc3SC)ccc12 [formula (1-14)],"ability to induce alternative autophagy, comparative statement",[1],ability to induce alternative autophagy is higher
CCOC(=O)c1c(NC(C)=O)sc2c(OCCN(CC)CC)c(-c3ccc(O)cc3)ccc12 [formula (1-15)],"ability to induce alternative autophagy, comparative statement",[1],ability to induce alternative autophagy is higher
CCOC(=O)c1c(NC(C)=O)sc2c(OCCN(CC)CC)c(-c3cccs3)ccc12 [formula (1-17)],"ability to induce alternative autophagy, comparative statement",[1],ability to induce alternative autophagy is higher
CCOC(=O)c1c(NC(C)=O)sc2c(OCCN(CC)CC)c(-c3ccsc3)ccc12 [formula (1-18)],"ability to induce alternative autophagy, comparative statement",[1],ability to induce alternative autophagy is higher
